Experimental data taken from PMC13083723 (Patterns, 2026).
Where “and” joins values, the source holds several entries; their conditions need not be identical. Equal entries are not always repeated. Where two headings read alike, the source gives them in different places.

How the values were obtained:
A549 cells = experiment: PLD assay of predicted ENZO library compounds in A549 cells; details: Homo sapiens, A549, read-out: PLD effect % in A549
Vero-E6 cells = experiment: cells; type: cell-based
CaCo2 cells = details: 10 μM in-assay concentration; ENZO library; amiodarone as positive control
SARS-CoV-2 [1] = details: Caco-2, 20 µM; cited from earlier work
A549-ACE2 cells = experiment: cells; type: cell-based; details: A549-ACE2, 24 h, read-out: PLD_Effect(%) A549-ACE2
SARS-CoV-2 [2] = details: cited from earlier work; for Vero-E6 CPE inhibition %: 10 µM
[3] = cited from earlier work
[4] = Chlorocebus sabaeus, Vero C1008, 24 h, read-out: PLD effect % in Vero-E6
[5] = Chlorocebus sabaeus, Vero C1008, 24 h, read-out: PLD_Effect(%) VERO-E6
[6] = Chlorocebus sabaeus, Vero C1008, 24 h; read-out: PLD Effect in % 5 µM
[7] = Chlorocebus sabaeus, Vero C1008, 24 h; read-out: PLD Effect in % 10 µM
[8] = Chlorocebus sabaeus, Vero C1008, 24 h; read-out: PLD Effect in % 20 µM
[9] = Chlorocebus sabaeus, Vero C1008, read-out: PLD EC50 µM
[10] = value is the negative log10 of mol/L

Compound | activation at 10 µM (A549 cells) [%] | activation at 10 µM (Vero-E6 cells; [4]) [%] | PLD effect % in CaCo2 (CaCo2 cells) [%] | CaCo2 CPE inhibition % (SARS-CoV-2 [1]) [%] | activation at 5 µM (Vero-E6 cells; [6]) [%] | activation at 10 µM (Vero-E6 cells; [7]) [%] | activation at 20 µM (Vero-E6 cells; [8]) [%] | EC50 (Vero-E6 cells; [9]) [µM] | Vero-E6 CPE inhibition % (SARS-CoV-2 [2]) | also measured
CNCC[C@H](Oc1cccc2ccccc12)c1cccs1 [Duloxetine] | 108 | 95.9 | 84.9 | – | – | – | – | – | – | –
CNCC[C@@H](Oc1ccccc1C)c1ccccc1 [Atomoxetine] | 70.9 | 27.7 | 0.7 | – | – | – | – | – | – | –
OCCN1CCN(CCCN2c3ccccc3Sc3ccc(C(F)(F)F)cc32)CC1 [Fluphenazine] | 77.4 | 90.3 | 95.4 | – | – | – | – | – | – | –
NCCC(Oc1ccc(C(F)(F)F)cc1)c1ccccc1 (centres unmarked) [norfluoxetine, reference compound] | – | – | – | 94.99 | 92.1 | 112 | 198 | 1.96 | -0.11% | activation at 10 µM (A549-ACE2 cells): 108%; activation at 10 µM (Vero-E6 cells; [5]): 62.2%
CC(CN1c2ccccc2Sc2ccccc21)N(C)C (centres unmarked) [Promethazine] | 81.9 | 90.7 | 37.8 | – | – | – | – | – | – | –
C[C@@H](NCCCc1cccc(C(F)(F)F)c1)c1cccc2ccccc12 [Cinacalcet] | 105 | 43 | 20.9 | – | – | – | – | – | – | –
COCC(=O)O[C@]1(CCN(C)CCCc2nc3ccccc3[nH]2)CCc2cc(F)ccc2[C@@H]1C(C)C [mibefradil, reference compound] | – | – | – | 52.45 | 62 | 80.5 | 2.41 | – | -0.26 | activation at 10 µM (A549-ACE2 cells): 97.4%; activation at 10 µM (Vero-E6 cells; [5]): 88.2%; EC50 (Vero-E6 cells; Chlorocebus sabaeus, Vero C1008; read-out: PLD EC50): 2.45 µM; pchembl_value (type AC50), Dopamine D3 receptor [3]: 6.08; pchembl_value (type AC50), Mu opioid receptor [3]: 6.01; pchembl_value (type AC50), Serotonin 1a (5-HT1a) receptor [3]: 6.13; AC50 ([3]; read-out: AC50 (value), Dopamine D3 receptor): 825 nM; AC50 ([3]; read-out: AC50 (value), Mu opioid receptor): 979 nM; AC50 ([3]; read-out: AC50 (value), Serotonin 1a (5-HT1a) receptor): 746 nM; IC50 ([3]; read-out: IC50 (value), Voltage-gated L-type calcium channel alpha-1C subunit): 250 nM; pchembl_value (type IC50), Voltage-gated L-type calcium channel alpha-1C subunit [3, 10]: 6.60; pchembl_value (type IC50), Voltage-gated T-type calcium channel alpha-1G subunit [3, 10]: 6.00 and 7.19; pchembl_value (type IC50), Voltage-gated T-type calcium channel alpha-1H subunit [3, 10]: 6.00 and 6.89; pchembl_value (type IC50), Voltage-gated T-type calcium channel alpha-1I subunit [3, 10]: 6.90 and 6.00 and 6.89
COc1cccc([C@@H](C)NCCCc2ccccc2Cl)c1 [tecalcet, reference compound] | – | – | – | 78.10 | 59.6 | 74.3 | 102 | 2.6 | -0.13% | activation at 10 µM (A549-ACE2 cells): 93%; activation at 10 µM (Vero-E6 cells; [5]): 70.1%
CN(C)CCNc1nc2cc(O)ccc2c2c1C(=O)c1ccccc1-2 [TAS-103, reference compound] | – | – | – | 92.56 | – | – | – | – | -0.08% | PLD Effect in % 5 µM (Vero-E6 cells; 5 µM): 135.39%; PLD Effect in % 10 µM (Vero-E6 cells; 10 µM): 172.31%; PLD Effect in % 20 µM (Vero-E6 cells; 20 µM): 121.21%; EC50 (Vero-E6 cells; read-out: PLD EC50): 2.29 µM
CNCCC(Oc1ccc(C(F)(F)F)cc1)c1ccccc1 (centres unmarked) [Fluoxetine, reference compound] | 108 | 111 | – | – | – | – | – | – | – | –
COC(=O)C1=C(C)NC(C)=C(C(=O)OCCCN2CCC(c3ccccc3)(c3ccccc3)CC2)[C@@H]1c1cccc([N+](=O)[O-])c1 [Dexniguldipine, reference compound] | – | – | – | 97.57 | – | – | – | 2.48 | -0.15% | activation at 5 µM (Vero-E6 cells; Chlorocebus sabaeus, Vero C1008, 24 h, read-out: PLD Effect in % 5 µM): 83.1%; activation at 10 µM (Vero-E6 cells; Chlorocebus sabaeus, Vero C1008, 24 h, read-out: PLD Effect in % 10 µM): 115%; activation at 20 µM (Vero-E6 cells; Chlorocebus sabaeus, Vero C1008, 24 h, read-out: PLD Effect in % 20 µM): 127%
CCN(CC)CCCCNc1ncc2cc(-c3c(Cl)cccc3Cl)c(NC(=O)NC(C)(C)C)nc2n1 [PD-161570, reference compound] | – | – | – | 108.10 | – | – | – | – | 12.35% | PLD Effect in % 5 µM (Vero-E6 cells; 5 µM): 163.59%; PLD Effect in % 10 µM (Vero-E6 cells; 10 µM): 118.17%; PLD Effect in % 20 µM (Vero-E6 cells; 20 µM): 36.18%; EC50 (Vero-E6 cells; read-out: PLD EC50): 0.63 µM; EC50 (SARS-CoV-2 [2]; read-out: Vero-E6 EC50): 145000 nM
COc1ccc(NC(=O)c2ccc(-c3ccc(-c4noc(C)n4)cc3C)cc2)cc1N1CCN(C)CC1 [GR-127935, reference compound] | – | – | – | 53.73 | 136 | 162 | -40.2 | 1.12 | -0.76% | –
